Source: the supplement of paper PMC10307832

Key:
Assay in all cases: relative viability (nuclei count vs DMSO), 5 days (fraction); higher = more cells survive
[1] = compound: CC1=C(C(=O)N2C=CSC2=N1)CCN3CCC(=C(C4=CC=CC=C4)C5=CC=C(C=C5)F)CC3 + CC(C)C[C@H](NC(=O)[C@H](Cc1ccccc1)NC(=O)c1cnccn1)B(O)O [Bortezomib] (partner 0.002 µM)
Outline: (§1)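 Five library-drug doses in √10 steps were combined with a fixed anchor-drug dose, or a single drug was given alone, by pin tool to lung cancer cell lines in 1536-well plates the day after seeding. Nuclei were stained and counted after 5 days. Relative viability is the nuclei count in treated wells over that in vehicle wells, taken as the median of duplicate plates.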

[2] = compound: CC1=C(C(=O)N2C=CSC2=N1)CCN3CCC(=C(C4=CC=CC=C4)C5=CC=C(C=C5)F)CC3 + CS(=O)(=O)N1CCN(Cc2cc3nc(-c4cccc5[nH]ncc45)nc(N4CCOCC4)c3s2)CC1 [Pictilisib] (partner 1 µM)
Outline: as §1

[3] = compound: CC1=C(C(=O)N2C=CSC2=N1)CCN3CCC(=C(C4=CC=CC=C4)C5=CC=C(C=C5)F)CC3 + O=C(c1cc(Cc2n[nH]c(=O)c3ccccc23)ccc1F)N1CCN(C(=O)C2CC2)CC1 [Olaparib] (partner 8 µM)
Outline: as §1

[4] = compound: CC1=C(C(=O)N2C=CSC2=N1)CCN3CCC(=C(C4=CC=CC=C4)C5=CC=C(C=C5)F)CC3 + CC(=O)Nc1cccc(-n2c(=O)n(C3CC3)c(=O)c3c(Nc4ccc(I)cc4F)n(C)c(=O)c(C)c32)c1 [Trametinib] (partner 0.02 µM)
Outline: as §1

Cell Line | relative viability ([1]; first compound 0.08 µM) | relative viability ([1]; first compound 0.253 µM) | relative viability ([1]; first compound 0.8 µM) | relative viability ([1]; first compound 2.53 µM) | relative viability ([1]; first compound 8 µM) | relative viability ([2]; first compound 0.08 µM) | relative viability ([2]; first compound 0.253 µM) | relative viability ([2]; first compound 0.8 µM) | relative viability ([2]; first compound 2.53 µM) | relative viability ([2]; first compound 8 µM) | relative viability ([3]; first compound 0.08 µM) | relative viability ([3]; first compound 0.253 µM) | relative viability ([3]; first compound 0.8 µM) | relative viability ([3]; first compound 2.53 µM) | relative viability ([3]; first compound 8 µM) | relative viability ([4]; first compound 0.08 µM) | relative viability ([4]; first compound 0.253 µM) | relative viability ([4]; first compound 0.8 µM) | relative viability ([4]; first compound 2.53 µM) | relative viability ([4]; first compound 8 µM)
HCC-78 | 0.458 | 0.616 | 0.552 | 0.447 | 0.405 | 0.216 | 0.206 | 0.226 | 0.212 | 0.273 | 0.663 | 0.872 | 0.944 | 0.921 | 0.608 | 0.818 | 0.837 | 0.941 | 0.727 | 0.616
HCC-366 | – | 1.14 | 1.18 | 1.04 | 0.308 | 0.128 | 0.152 | 0.194 | 0.129 | 0.121 | 0.331 | 0.287 | 0.469 | 0.464 | 0.226 | 0.422 | 0.384 | 0.377 | 0.404 | 0.216
HCC-827 | 0.975 | 0.843 | 1.01 | 1.11 | 0.987 | 0.829 | 1.07 | 1.13 | 0.924 | 0.645 | 0.655 | 0.626 | 0.718 | 0.637 | 0.667 | 0.483 | 0.503 | 0.501 | 0.62 | 0.53
HOP-62 | 0.731 | 0.628 | 1.03 | 0.922 | 0.323 | 0.891 | 0.72 | 0.827 | 0.745 | 0.611 | 0.388 | 0.461 | 0.445 | 0.434 | 0.352 | 0.34 | 0.365 | 0.37 | 0.422 | 0.225
LC-2-ad | 1.05 | 0.799 | 1.03 | 1.22 | 0.827 | 0.418 | 0.369 | 0.513 | 0.646 | 0.427 | 0.87 | 0.79 | 0.65 | 0.875 | 0.574 | 0.943 | 0.98 | 0.938 | 0.95 | 0.606
LCLC-97TM1 | – | 0.484 | 0.249 | 0.408 | 0.597 | 0.208 | 0.297 | 0.217 | 0.182 | 0.167 | 0.414 | 0.342 | 0.425 | 0.452 | 0.344 | 0.183 | 0.18 | 0.23 | 0.172 | 0.151
LCLC-103H | 1.06 | 1.06 | 0.957 | 1.22 | 0.903 | 0.884 | 0.636 | 0.449 | 0.618 | 0.566 | 0.876 | 0.71 | 0.859 | 0.735 | 0.667 | 0.672 | 0.645 | 0.68 | 0.743 | 0.549
LK-2 | – | – | – | – | – | 0.611 | 0.66 | 0.605 | 0.451 | 0.539 | 0.726 | 0.728 | 0.736 | 0.756 | 0.514 | 0.629 | 0.723 | 0.886 | 0.801 | 0.477
NCI-H358 | – | – | – | – | – | 0.301 | 0.338 | 0.326 | 0.38 | 0.305 | 0.654 | 0.611 | 0.613 | 0.774 | 0.502 | 0.12 | 0.121 | 0.127 | 0.133 | 0.136
NCI-H522 | – | – | – | – | – | – | – | – | – | – | 0.622 | 0.732 | 0.647 | 0.664 | 0.513 | 0.758 | 0.74 | 0.7 | 0.758 | 0.778
NCI-H1299 | 1.07 | 1.04 | 1.04 | 1.02 | 0.702 | 1 | 0.906 | 0.754 | 1.05 | 0.575 | 1.04 | 1.01 | 0.957 | 0.977 | 0.803 | – | – | – | – | –
NCI-H1395 | – | – | – | – | – | 0.772 | 0.641 | 0.531 | 0.572 | 0.629 | 0.424 | 0.43 | 0.443 | 0.406 | 0.434 | 1.05 | 0.97 | 0.992 | 1 | 0.872
NCI-H1563 | 0.928 | 0.957 | 0.852 | 0.827 | 0.722 | 0.542 | 0.684 | 0.66 | 0.633 | 0.637 | – | – | – | – | – | – | – | – | – | –
NCI-H1648 | – | – | – | – | – | – | – | – | – | – | 1.14 | 0.981 | 1.28 | 0.787 | 0.359 | 0.437 | 0.378 | 0.427 | 0.465 | 0.417
NCI-H1703 | 0.262 | 0.316 | 0.256 | 0.359 | 0.263 | 0.298 | 0.248 | 0.266 | 0.295 | 0.248 | 0.385 | 0.334 | 0.427 | 0.577 | 0.432 | – | – | – | – | –
NCI-H1793 | – | – | – | – | – | 0.368 | 0.283 | 0.249 | 0.341 | 0.23 | 0.536 | 0.807 | 0.937 | 1.08 | 0.521 | 0.433 | 0.407 | 0.443 | 0.47 | 0.426
NCI-H1944 | – | – | – | – | – | 0.369 | 0.336 | 0.343 | 0.333 | 0.37 | 0.422 | 0.446 | 0.38 | 0.383 | 0.359 | 0.382 | 0.373 | 0.436 | 0.368 | 0.335
NCI-H2170 | – | – | – | – | – | 0.295 | 0.287 | 0.256 | 0.304 | 0.338 | 0.674 | 0.538 | 0.635 | 0.717 | 0.394 | 1.21 | 0.894 | 0.964 | 0.792 | 0.637
NCI-H2342 | – | – | – | – | – | – | – | – | – | – | 0.38 | 0.44 | 0.435 | 0.426 | 0.43 | 0.667 | 0.82 | 0.791 | 0.886 | 0.769
SK-MES-1 | – | – | – | – | – | 0.386 | 0.396 | 0.357 | 0.33 | 0.261 | 0.961 | 0.583 | 0.725 | 0.827 | 0.64 | 0.578 | 0.523 | 0.545 | 0.594 | 0.474
SW 900 | – | – | – | – | – | – | – | – | – | – | 0.896 | 0.878 | 0.841 | 0.848 | 0.706 | 0.821 | 1.18 | 0.855 | 0.614 | 0.497
